Reference: patent US11091740B2, “Composition for inducing dedifferentiation into cancer stem cells comprising ribosome-activating inhibitor as active ingredient, cancer organoid culture method and anticancer drug screening platform based thereon” (priority 2016, dated 2021)

Key:
[1] = test system: colon cancer cell lines; assay: Spheroid culture with ribosome-inactivating stress exposure, CD44/CD133 flow cytometry; type: cell-based; conditions: RIS-1 10 ng/mL or RIS-2 50 ng/mL pretreated for 6 hours, spheroid cultured 6 days, compared with control
Protocol: Colon cancer cell lines were purchased from ATCC (Manassas, USA), a cell line distribution company. Cells were maintained with RPMI medium supplemented with 10% (v/v) fetal bovine serum (FBS) and 5% mixed antibiotics (50 units/mL penicillin and […] streptomycin) (welgene, Daegu, South Korea) in a 5% CO2-humidified incubator at 37° C. […] First, the cultured spheroid cells were dissociated into single cells by trypsinization, washed with phosphate buffer solution, incubated with FITC-conjugated CD44 (BD pharmingen) and APC-conjugated CD133 (MACS, Miltenyi Biotec) antibodies for 15 min, and then the expression of CD44 and CD133 positive cells was analyzed by flow cytometry (Becton Dickinson FACS Canto Il BD Bioscience, San Jose, Calif., USA).

[2] = test system: epithelial cancer cells; assay: Single versus repeated exposure to ribosome-inactivating stress, CD44/CD133 flow cytometry; type: cell-based; conditions: for cancer stem cells (CD44 and CD133) after a first temporary exposure: exposed once for 24 hours, spheroid cultured in stem cell medium, sub-cultured three times; for CD44 and CD133 positive stem cell groups in chronic exposure: exposure in each subculture, total of 3 exposures
Protocol: To reconfirm that ribosome-inactivating stress (RIS1, RIS2) is a key factor for inducing the dedifferentiation of epithelial cancer cells, the cells were exposed to ribosome-inactivating stress once for 24 hours, spheroid cultured in a stein cell culture medium for 6 days. In the experimental groups which sub-cultured in three times; and sub-cultured while exposing to the ribosome-inactivating stress on the optimum medium for cancer stem cell in each subculture (total of 3 exposures), cancer stem cells were compared quantitatively by flow cytometry with CD44 and CD133 as the marker thereof.

[3] = test system: Colorectal cancer cell lines; assay: Cell line-based cancer organoid, CD44 (+) cells by flow cytometry; conditions: RIS-1 10 ng/mL or RIS-2 50 ng/mL pretreated for 6 hours, spheroid, organoid culture 12 days
Protocol: Colorectal cancer cell lines were pretreated with ribosome-inactivating stress, RIS-1 of 10 ng/mL or RIS-2 of 50 ng/mL for 6 hours to form spheroid. Cancer organoid is formed by using spheroid induced from cancer stem cells increased by the ribosome-inactivating stress. A cancer organoid culture technique was developed from cancer stem cells increased by ribosome-inactivating stress. 100 μl of a culture medium containing 200-400 spheroid cells of about 100 μm in size among the cultured spheroids was mixed with an equal amount of a ice-cold matrigel (BD #35424, USA) and divided as a dome in a 24-well culture dish preheated in the cell incubator. Organoid formation (changes in crypt-villus domain production, morphology and size changes, etc.) is monitored by filling the organoid culture medium (STEMCELLS) so as not to reach the cell-matrigel dome and incubating for 12 days (FIG. 7A). The final cultured organoid is tested by immunohistochemistry and flow cytometry. After washing with ice-cold PBS, the organoid was separated from the matrigel and fixed with 0.1% tritonX-100, 4% PFA and immunostained. E-cadherin, an epithelial cell factor, mucin-2, a goblet cell marker for differentiated intestinal cells and F-actin for confirming cell structure formation are examined to confirm the formation of an intestinal organoid (FIG. 7A). […]

[4] = test system: Cancer stem cell cultured spheroid; assay: 5-FU response of cancer stem cell cultured spheroid, PI/AnnexinV flow cytometry; type: cell-based; conditions: 5-FU 375 μM for 48 hours
Protocol: The drug effect close to human physiological activity can be confirmed by monitoring the anticancer drug response of heterogeneous cancer cells containing a plurality of cancer stem cells induced by the exposure of ribosome-inactivating stress. […] Cancer stem cell cultured spheroid were treated with 5-FU (375 μM) for 48 hours and apoptotic cells were quantified by flow cytometry using propidium iodide (PI) and AnnexinV-FITC (1:200) as markers. The number of apoptotic cells positive for both PI and AnnexinV for 5-FU was higher in the control (−) group, but the drug reactivity was better, but those in the general spheroid culture (DMSO) were decreased.

[5] = test system: CMT-93 mouse colorectal cancer cell line; assay: Allograft of RIS-2 pretreated cancer cells, epithelial mesenchyme transition markers by immunohistochemistry; type: in vivo; conditions: cells pretreated with RIS-2 50 ng/mL for 6 hours, subcutaneous in C57BL/6 mice, 5-FU i.p. on day 7, tumors excised 24 h later
Protocol: Cancer stem cells have been identified as a major cause of cancer progression, metastasis, recurrence, and resistance to anticancer drugs. In order to investigate the in vivo activity of cancer stem cells produced by the exposure to ribosome-inactivating stress, epithelial mesenchyme transition (EMT) phenomenon, which is an in vivo phenotype representing the characteristics of cancer stem cells was examined. The in vivo activity of cancer stem cells was determined by the degree of epithelial mesenchyme transition, which is verified by the decrease of E-cadherin, an epithelial cell marker and the increase of the protein expression of N-cadherin and vimentin, mesenchymal marker. For this purpose, in vivo experiment using allografts of cancer cells was performed. The CMT-93 mouse colorectal cancer cell line was cultured in DMEM (Welgene, Daegu, South Korea) supplemented with 10% (v/v) fetal bovine serum (FBS) and 5% mixed antibiotics (50 units/mL penicillin, […] streptomycin) in a 5% CO2, 37 humidified incubator at 37° C. CMT-93 cells (5×10^6) pretreated with RIS-2 (50 ng/mL) for 6 hours were resuspended with 200 μL of PBS and injected subcutaneously into a 14-week-old male C57BL/6 mice. Seven days later, […] anticancer drug 5-FU was intraperitoneally injected and tumors were excised surgically 24 h later. Solid tumors were obtained by immunohistochemistry using E-cadherin (1:200, BD Science), N-cadherin (1:200, BD Science), vimentin (1:200, Cell signaling) specific antibodies. The excised solid tumors were fixed in 4% paraformaldehyde, embedded in paraffin, and sectioned to prepare slice slide specimens. After dehydration and antibody binding, spatial expression of protein expression in tissues was investigated by 3,3-diaminobenzidine (DAB) substrate reaction and relative expression of DAB versus hematoxylin-positive cells was quantified by a tissue analysis software (Histo Quest, TissueGnotics).

COc1ccc(C[C@H]2NC[C@H](O)[C@H]2OC(C)=O)cc1 [RIS-1, anisomycin]
CD44 and CD133 positive cells representing cancer stem cell group [1]: significantly increased | cancer stem cells (CD44 and CD133) after a first temporary exposure [2]: maintained continuously | CD44 and CD133 positive stem cell groups in chronic exposure [2]: increased significantly | CD44 (+) cancer stem cell group in cultured cancer organoid [3]: significantly increased

O=c1[nH]cc(F)c(=O)[nH]1 [5-FU, fluorouracil]
number of apoptotic cells positive for both PI and AnnexinV ([4]; control (−) group): higher | number of apoptotic cells positive for both PI and AnnexinV ([4]; general spheroid culture (DMSO)): decreased | drug reactivity (apoptotic cells) ([4]; spheroid containing cancer stem cell group induced by ribosome-inactivating stress): further reduced

CC1=C[C@H]2O[C@@H]3[C@H](O)C[C@](C)([C@@]2(CO)[C@H](O)C1=O)[C@]31CO1 [RIS-2, deoxynivalenol]
CD44 and CD133 positive cells representing cancer stem cell group [1]: significantly increased | epithelial cell marker E-cadherin in solid tumors [5]: decreased | mesenchymal cell marker N-cadherin in solid tumors [5]: significantly increased | mesenchymal cell marker vimentin protein in solid tumors [5]: significantly increased | cancer stem cells (CD44 and CD133) after a first temporary exposure [2]: maintained continuously | CD44 and CD133 positive stem cell groups in chronic exposure [2]: increased significantly | CD44 (+) cancer stem cell group in cultured cancer organoid [3]: significantly increased
